Experimental findings from US20080125498A1, “TREATMENT OF NEURODEGENERATIVE DISEASES AND CONDITIONS USING PAR1 ANTAGONISTS” (priority 2001, published 2008) are described below.

Square brackets hold non-standard residues; d marks the D form. Ends that are not written are not given here. * marks the point of attachment. Phe(4-guanidino) = N=C(N)Nc1ccc(C[C@H](N)C(=O)O)cc1; Phe(4-F) = N[C@@H](Cc1ccc(F)cc1)C(=O)O; trans‑cinnamoyl = O=C(/C=C/c1ccccc1)*

The subject of experiment [1] is NMDA receptor. Briefly: Whole cell patch recording of NMDA-evoked currents in hippocampal slice CA1 pyramidal neurons. The class given is cell-based, rat.
Experiment [2] has as its system NMDA receptor. Description: Whole cell patch recording of NMDA-evoked currents in hippocampal CA1 pyramidal cells of wild-type and PAR1-/- mice. The class given is cell-based, mouse. Particulars: 100 micromolar APV, wild-type and PAR1-/- mice.
For experiment [3], the system named is PAR1. Briefly: Free intracellular calcium in cultured astrocytes (Fluo-3 AM). It counts as cell-based, mouse.
Experiment [4] concerns PAR1. It counts as cell-based, rat.
Experiment [5] concerns PAR1. Description: PI hydrolysis in hippocampal slices. It counts as cell-based, mouse. An excerpt:
PAR1 is a seven transmembrane G-protein coupled receptor that stimulates G-alpha-q to initiate phosphatidyl inositol (PI) hydrolysis. To ensure that PAR1 is functional in regions of the brain that are subject to ischemic damage in the mouse transient focal ischemia model, we tested the ability of several activators of PAR1 to initiate PI hydrolysis (Chung et al., 1997) in the hippocampus and striatum.
Since tPA activates plasminogen to form plasmin, we tested whether exogenously applied tPA could activate endogenous plasminogen in brain slices to form plasmin and activate PAR1.

In another experiment the test system is NR1 subunit. Briefly: NMDA receptor subunit immunoblots of thrombin-treated brain membranes. The class given is biochemical, rat. On the procedure: NMDA receptor subunit immunoblots. Human embryonic kidney (HEK) cells were maintained in DMEM supplemented with 0.5 mM glutamine, 1 mM pyruvate, penicillin, streptomycin, and 10% fetal bovine serum in a humidified environment with 5% CO2, and transfected with 1 microgram/ml of NR1 or 1:2 microgram/ml NR1:NR2 cDNA. Cells were washed in ice-cold HEPES buffered saline (HBS), scraped on ice, and membranes isolated by centrifugation at 12,000×g. […] Adult rat brain regions were dissected, frozen in liquid nitrogen, homogenized in ice-cold HEPES buffered saline (HBS), centrifuged, and stored at −20° C. Membranes were resuspended in HBS and treated with thrombin or buffer for 30 min at 37° C. Samples were centrifuged, and the membrane pellet resuspended in 2% sodium dodecylsulphate (SDS), 62.5 mM Tris, 10% glycerol, 5% beta-mercaptoethanol, 0.05% bromophenol blue (pH 6.8); some samples were treated with IOU DNase for 10 min at 37° C. SDS/polyacrylamide gel electrophoresis (SDS/PAGE) and protein blotting to Immobilon-P membranes was performed as described (Lau and Huganir, Differential tyrosine phosphorylation of N-methyl-D-aspartate receptor subunits. J Biol Chem 270: 20036-20041, 1995). Membranes were blocked for 30 min in 0.2 M Tris base, 1.37 M NaCl, pH 7.4, containing 5% nonfat dry milk, and incubated overnight at 4° C. in primary antibodies: NR1 mAb54.1 (gift from Dr. S. Heinemann, Salk Institute, La Jolla Calif.), NR1 alt-C-terminal (Upstate Biotechnology, Lake Placid, N.Y.), NR2A C-terminal (Chemicon, Temecula, Calif.), or NR2B C-terminal (Upstate Biotechnology). Membranes were washed 3×, and incubated with HRP-conjugated goat anti-mouse or goat anti-rabbit antibodies (1:10,000), washed 3×, and developed using enhanced chemiluminescence. The percent of receptor cleaved by thrombin was determined using densitometry.
(In general: Immunoblotting shows a protein as a band on a membrane.)

For experiment [6], the system named is NMDA receptor. Briefly: Two electrode voltage clamp of recombinant NMDA receptors with or without PAR1 in Xenopus oocytes. The class given is cell-based, Xenopus laevis. On the procedure: Expression and recording of NMDA and PAR1 receptor function in Xenopus laevis oocvtes. cRNA was synthesized from linearized template cDNA according to manufacturer specifications (Ambion, Austin, Tex.). Xenopus oocytes were removed from ovaries of female frogs anesthetized with 0.3% 3-aminobenzoic acid ethylester. Groups of 20-30 stage V-VI oocytes were incubated in 292 U/ml Worthington (Freehold, N.J.) Type IV collagenase for 2 hours with slow shaking. The oocytes were rinsed in Barth's solution, and stored at 17° C. in Barth's solution supplemented with 100 microgram/ml gentamycin and 40 microgram/ml streptomycin. Control oocytes were injected with 3 ng NR1 subunit and 7 ng NR2B subunit. Other oocytes were injected with the NMDA receptor subunits plus 3 ng PAR1 cRNA. Two electrode voltage clamp recordings were made 3-7 days post-injection. Oocytes were continually perfused with recording solution (in mM, 90 NaCl, 1 KCl, 10 HEPES, pH 7.4) and held under voltage clamp at −30 to −50 mV with an OC-725B amplifier (Warner Instruments, Hamden, Conn.). Recording solution was supplemented with 1.0 mM CaCl2 during initial impalement of the oocytes and subsequently 0.5 mM BaCl2 during recording to reduce the calcium-activated chloride current endogenous to oocytes. […] NMDA receptor currents were evoked by 20 micromolar glutamate/10 micromolar glycine perfused for 0.5-1 minute. […] Expression of PAR1 protein was verified by a thrombin or SFLLRN-stimulated rapidly desensitizing inward current at −30 mV that reflects the Ca^2+-activated Cl^− current endogenous to the oocyte. To test the ability of thrombin to modify NMDA receptor function in oocytes, recordings of receptor function were made both before and after a 15-60 min incubation in recording solution supplemented with thrombin in Eppendorf tubes at room temperature. […] Oocytes with responses less than 50 nA were not included in the analysis.
For orientation: In two-electrode clamp one electrode senses voltage and the other passes current.

Another experiment relates to cortical astrocytes. Description: Astrocyte proliferation by BrdU incorporation. It counts as cell-based, mouse. Particulars: for number of BrdU-positive cells: astrocyte cultures from wild type mice, 3 or 30 micromolar, 24 hours. Here is the method: Cortical astrocytes from wild type and PAR1−/− knockout mice were either untreated (control) or treated for 24 hours with a 3 or 30 micromolar concentration of the peptide TFLLR-NH2 (SEQ ID NO: 1), which selectively activates PAR1. Cells were pulse-labeled with BrdU for the final 2 hours of culture.
(Dividing cells build labelled thymidine or BrdU into new DNA.)

Setting [7] is: cultured astrocytes from PAR1-/- knockout mice.
Setting [8] is: cultured astrocytes from wild type mice.

For `N[C@H](CCCP(=O)(O)O)C(=O)O` [APV, D-2-amino-5-phosphonovaleric acid, reference compound], the “block of responses to NMDA/glycine” value with NMDA receptor [1] (100 micromolar APV) is reported as “blocked the response”. Also, the “block of NMDA receptor response following thrombin treatment” value in the experiment on NMDA receptor [2] is “abolished”.
On to `Nc1ncnc2c1ncn2[C@@H]1O[C@H](COP(=O)(O)OP(=O)(O)OP(=O)(O)O)[C@@H](O)[C@H]1O` [ATP], for which the free intracellular calcium result in the experiment with PAR1 [3] (setting [7]) and with PAR1 [3] (setting [8]) was “increases free intracellular calcium” in each case.
Turning to `NC(N)=NCCC[C@H](NC(=O)[C@@H]1CCCN1C(=O)[C@H](N)Cc1ccccc1)C(=O)CCl` [PPACK, D-Phe-Pro-Arg-chloromethylketone], the “response magnitude to thrombin (F/Fo) with PPACK” value with PAR1 [4] is on record as 1.1±0.04 fold.
In the case of “N-trans-cinnamoyl-p-fluoroPhe-p-guanidinoPhe-Leu-Arg-Arg-NH2 ({trans‑cinnamoyl}-[Phe(4-F)][Phe(4-guanidino)]LRR-NH2; SMILES CC(C)C[C@H](NC(=O)[C@H](Cc1ccc(NC(=N)N)cc1)NC(=O)[C@H](Cc1ccc(F)cc1)NC(=O)/C=C/c1ccccc1)C(=O)N[C@@H](CCCNC(=N)N)C(=O)N[C@@H](CCCNC(=N)N)C(N)=O) [PAR1 antagonist peptide, reference compound]”, the “inhibition of PI hydrolysis produced by thrombin and plasmin” value in the experiment on PAR1 [5] (pre-incubation with antagonist peptide) is “inhibited PI hydrolysis”.
SFLLRN [reference compound]: the “potentiation of the response to pressure applied NMDA plus glycine” value in the experiment with NMDA receptor [1] (30 micromolar SFLLRN, n=9) is given as 1.76±0.19 fold. Also, in the experiment on NR1 subunit (0.1-1 mM SFLLRN), the “stimulation of NR1 cleavage” value is “did not stimulate cleavage”. In addition, in the experiment with NMDA receptor [6] (NR1-1a/NR2B plus PAR1, 10-30 micromolar SFLLRN, n=9), the “potentiation of NMDA receptor current after SFLLRN stimulation of PAR1” value came out at 1.41±0.11 fold. The “SFLLRN potentiation of NR1-1a/NR2A receptors” value in the experiment with NMDA receptor [6] (oocytes with PAR1, 10-30 micromolar SFLLRN, n=6) is on record as 1.85±0.1 fold. For the same compound, the “Fluo-3 fluorescence in soma and dendrites” value in the experiment on PAR1 [4] (3 nM thrombin or 10 micromolar SFLLRN, TTX/APV present, subset of neurons) is “robust increase”.
On to “TFLLR-NH2 [specific PAR1 agonist peptide]”, for which the PI hydrolysis result with PAR1 [5] (wild type hippocampus / hippocampal slices) was “increased PI hydrolysis”. For the same compound, the “number of BrdU-positive cells” value with cortical astrocytes was “increases the number of BrdU-positive cells”; with cortical astrocytes (listed as TFLLR), “can stimulate astrocyte proliferation”. Further, the free intracellular calcium result in the experiment with PAR1 [3] (setting [7]) is listed as “does not increase free intracellular calcium”; in the experiment on PAR1 [3] (setting [8]), “increases free intracellular calcium”.
In the case of “bisindolylmaleimide [reference compound]”, the “potentiation of NMDA receptor currents by thrombin in presence of BIS” value in the experiment on NMDA receptor [1] (BIS 10 microM in ACSF, 30 nM (3 U/ml) thrombin, n=10) is listed as 1.20±0.13 fold. In addition, the “NMDA responses during preapplication of BIS” value in the experiment on NMDA receptor [1] (BIS alone) is “unchanged”.
hirudin [reference compound]: the “potentiation by thrombin of NMDA responses in presence of hirudin” value with NMDA receptor [1] (3 U/ml thrombin + 100 ATU hirudin, average potentiation 12-19 min post treatment, n=5) turned out to be 0.96±0.23 fold. In addition, the “block of NR1 cleavage by 30 nM thrombin” value in the experiment with NR1 subunit (striatal membranes, 100 ATU hirudin) is reported as “blocked cleavage”.
pertussis toxin: the “inhibition of PAR1-induced astrocyte proliferation” value with cortical astrocytes (24-hour pre-treatment, counting of BrdU-positive cells) is recorded as “could be inhibited”.
